Marks after values point to notes of the source that are not given here.
How the values were obtained:
[1] = test system: ARP clone 12229 (NNRTI); experiment: BiCycle assay, resistant viral strain; assay type: cell-based, HIV-1; conditions: IC50 resistant strain / IC50 wild type NL4-3, BiCycle Assay
Experimental: (§1) BiCycle Assay is cell based assay allowing the evaluation of the antiviral activity of HIV-1 inhibitors on the whole replication cycle of HIV-1. The assay consists in a first round of infection of the T-cell line MT-2 followed by infection of TZM-bl cells. MT-2 cells were seeded at a concentration of 50,000 cells/well in a 96-well plate and infected with the HIV-1 reference strain NL4-3 in presence of five-fold dilutions of the investigational compounds. After 72 hours, 50 µl of supernatant from each well, containing the virus produced in the first round of infection, were used to infect TZM-bl cells seeded in a 96-plate well at a concentration of 30,000 cells/well. Two days later, cells were lysed adding 40 µl of Glo Lysis Buffer (Promega) to each well for 5 minutes, then 40 µl of Brighy-Glo Luciferase Reagent (Promega) were added to each well for relative luminescence units (RLU) counting using Glo-Max Multi Detection System (Promega). RLU values from each well were elaborated using the GraphPad v5.0 software to calculate the IC50 of each compound.
(§2) The antiviral activity of some of the compounds listed in Table 3 was further evaluated determining the IC50 with viruses carrying resistant mutations that reduce the susceptibility to drugs currently employed in clinical practice to treat HIV infection. The resistant viruses were obtained through the NIH AIDS Reagent Program (www.aidsreagent.org) and have been already characterized by the Phenosense Assay (Monogram Biosciences), considered as the reference assay for phenotypic investigation of HIV drug resistance due to its large application in clinical trials.
(§3) IC50 values of resistant viral strains were determined by using the BiCycle Assay as previously described. The results of the analysis are summarized in Table 6, where fold change values are calculated as the ratio between the IC50 values of resistant HIV-1 strains and the IC50 value of the wild type reference HIV-1 strain NL4-3. Table 6. Fold change values of resistant viral strains

[2] = test system: ARP clone 7400 (NRTI); experiment: BiCycle assay, resistant viral strain; assay type: cell-based, HIV-1; conditions: IC50 resistant strain / IC50 wild type NL4-3, BiCycle Assay
Experimental: as §1, §2, §3

[3] = test system: ARP clone 11808 (PI); experiment: BiCycle assay, resistant viral strain; assay type: cell-based, HIV-1; conditions: IC50 resistant strain / IC50 wild type NL4-3, BiCycle Assay
Experimental: as §1, §2, §3

[4] = test system: ARP clone 12231 (NNRTI); experiment: BiCycle assay, resistant viral strain; assay type: cell-based, HIV-1; conditions: IC50 resistant strain / IC50 wild type NL4-3, BiCycle Assay
Experimental: as §1, §2, §3

[5] = test system: ARP clone 11845 (INI); experiment: BiCycle assay, resistant viral strain; assay type: cell-based, HIV-1; conditions: IC50 resistant strain / IC50 wild type NL4-3, BiCycle Assay
Experimental: as §1, §2, §3

[6] = test system: ARP clone 12465 (PI); experiment: BiCycle assay, resistant viral strain; assay type: cell-based, HIV-1; conditions: IC50 resistant strain / IC50 wild type NL4-3, BiCycle Assay
Experimental: as §1, §2, §3

[7] = test system: HIV-DNA 2-LTR circles; experiment: Quantification of 2-LTR products in infected MT-2 cells (real time PCR); assay type: cell-based, HIV-1; conditions: for 2-LTR/HIV-DNA ratio drug vs no-drug: NL4-3 M.O.I. 0.05, 24 hours, drug 28 1000 nM, 31 3000 nM, 23 5000 nM, Raltegravir 1000 nM
Excerpt: During the replication cycle of HIV, several forms of episomic HIV-DNA can be found in the nucleous as a result of abortive integration events in the genome of the cells. Unintegrated HIV-DNA forms such 2-LTR circles are considered as a marker of ongoing replication and can be easily detected and quantified through real time PCR systems. […] Therefore, the quantification of 2-LTR circles can be used as an indirect method to test the blockade of the integration step by a candidate or licensed integrase inhibitors (Reigadas S. et al, J. Antimicrob. Chemother. 2010; 65: 434-437).
Since NCp7 partecipates to several steps of HIV replication including integration, it was developed a cell based assay aimed at the quantification of 2-LTR circles in infected cells cultured in presence of inhibitory concentrations of candidate NCp7 inhibitors. In each culture 3x10^6 MT-2 cells were infected with HIV-1 reference strain NL4-3 at M.O.I. 0.05 in presence of investigational NCp7 inhibitors 23, 31, 28. A culture with the HIV-1 Integrase inhibitor Raltegravir™ was prepared as a reference for the inhibition of integration, while an infected culture without drugs (named "no-drug") was used to compare the amount of 2-LTR in the different cultures. Table 7 indicates the concentration of drugs used in each culture in comparison to the values of EC50 (calculated through the BiCycle Assay) and the values of TD50. Table 7. Concentration of drugs used [c] in comparison to the values of EC50 (calculated through the BiCycle Assay) and the values of TD50.
Cultures were incubated at 37°C and 5% CO2 for 24 hours, then cells were harvested and total DNA was extracted using the "MagCore® Genomic DNA Whole Blood Kit" automated system (Diatech).
Around 500 ng of extracted DNA were used in separated real time PCR reactions specific for the quantification of the total genomic and HIV-1 DNA, and the HIV-DNA 2-LTR circles, respectively. Both values were normalized as copies/10^6 cells according to β-globin gene quantification included in the first method. For each culture a ratio between 2-LTR/ total HIV-DNA circles was calculated and compared to the ratio obtained with the "no-drug" culture. Table 8. 2-LTR assay results

[8] = test system: ARP clone 11842 (INI); experiment: BiCycle assay, resistant viral strain; assay type: cell-based, HIV-1; conditions: IC50 resistant strain / IC50 wild type NL4-3, BiCycle Assay
Experimental: as §1, §2, §3

[9] = test system: ARP clone 7401 (NRTI); experiment: BiCycle assay, resistant viral strain; assay type: cell-based, HIV-1; conditions: IC50 resistant strain / IC50 wild type NL4-3, BiCycle Assay
Experimental: as §1, §2, §3

[10] = test system: NIH Catalogue Number: 11845; conditions: cited from earlier work
[11] = test system: NIH Catalogue Number: 11842; conditions: cited from earlier work

SMILES | Fold change 12229 (NNRTI) [1] | Fold change 7400 (NRTI) [2] | Fold change 11808 (PI) [3] | Fold change 12231 (NNRTI) [4] | Fold change 11845 (INI) [5] | Fold change 12465 (PI) [6] | 2-LTR/HIV-DNA ratio drug vs no-drug [7] | Fold change 11842 (INI) [8] | Fold change 7401 (NRTI) [9] | Level of resistance ([10]; INI resistant strain 11845) | Fold change ([10]; strain 11845, resistant virus IC50 to wild-type reference virus IC50 ratio, cut-off in brackets) | titer / amounts of 2-LTR circles compared with "no-drug" culture ([7]; NL4-3, 24 hours) | Level of resistance ([11]; INI resistant strain 11842) | Fold change ([11]; strain 11842, resistant virus IC50 to wild-type reference virus IC50 ratio, cut-off in brackets)
O=C(NCC1CCCCC1)c1nc(-c2ccccn2)nc(O)c1O [Compound 1, N-(cyclohexylmethyl)-5,6-dihydroxy-2-(pyridin-2-yl)pyrimidine-4-carboxamide] | 0.6 | 0.4 | 0.8 | 1.5 | 1.2 | 2.9 |  |  |  |  |  |  |  | 
Cc1cccnc1-c1nc(O)c(O)c(C(=O)N[C@H](C)C2CCCCC2)n1 [Compound 23, (R)-N-(1-cyclohexylethyl)-5,6-dihydroxy-2-(3-methylpyridin-2-yl)pyrimidine-4-carboxamide] | 1.0 | 0.7 | 5.1 | 2.8 | 1.2 | 2.3 | 0.5 | 8.6 | 1.4 |  |  |  |  | 
C[C@@H](NC(=O)c1nc(-c2cc(Cl)ccn2)nc(O)c1O)C1CCCCC1 [Compound 26, (R)-2-(4-chloropyridin-2-yl)-N-(1-cyclohexylethyl)-5,6-dihydroxypyrimidine-4-carboxamide] |  | 0.3 | 0.2 | 0.8 | 0.7 | 0.5 |  |  | 0.1 |  |  |  |  | 
COc1ccnc(-c2nc(O)c(O)c(C(=O)N[C@H](C)C3CCCCC3)n2)c1 [Compound 28, (R)-N-(1-cyclohexylethyl)-5,6-dihydroxy-2-(4-methoxypyridin-2-yl)pyrimidine-4-carboxamide] | 0.1 | 0.8 | 1.4 | 2.8 | 2.3 | 3.7 | 1.3 | 2.9 | 0.8 |  |  |  |  | 
C[C@@H](NC(=O)c1nc(-c2nccc3ccccc23)nc(O)c1O)C1CCCCC1 [Compound 31, (R)-N-(1-cyclohexylethyl)-5,6-dihydroxy-2-(isoquinolin-1-yl)pyrimidine-4-carboxamide] | 1.3 | 0.7 | 1.6 | 2.0 | 0.9 | 2.1 | 1.1 | 9.8 | 1.3 |  |  |  |  | 
Cc1nnc(C(=O)NC(C)(C)c2nc(C(=O)NCc3ccc(F)cc3)c(O)c(=O)n2C)o1 [Raltegravir™, Raltegravir, reference compound] |  |  |  |  |  |  | 2.9 |  |  | High resistance | >200 (1.5^b) | three times higher | High resistance | 96 (1.5^b)
